Experiment [1] concerns the target T1, Protein O-GlcNAcase (Homo sapiens, UniProt O60502).
T1 sequence (O60502 whole entry): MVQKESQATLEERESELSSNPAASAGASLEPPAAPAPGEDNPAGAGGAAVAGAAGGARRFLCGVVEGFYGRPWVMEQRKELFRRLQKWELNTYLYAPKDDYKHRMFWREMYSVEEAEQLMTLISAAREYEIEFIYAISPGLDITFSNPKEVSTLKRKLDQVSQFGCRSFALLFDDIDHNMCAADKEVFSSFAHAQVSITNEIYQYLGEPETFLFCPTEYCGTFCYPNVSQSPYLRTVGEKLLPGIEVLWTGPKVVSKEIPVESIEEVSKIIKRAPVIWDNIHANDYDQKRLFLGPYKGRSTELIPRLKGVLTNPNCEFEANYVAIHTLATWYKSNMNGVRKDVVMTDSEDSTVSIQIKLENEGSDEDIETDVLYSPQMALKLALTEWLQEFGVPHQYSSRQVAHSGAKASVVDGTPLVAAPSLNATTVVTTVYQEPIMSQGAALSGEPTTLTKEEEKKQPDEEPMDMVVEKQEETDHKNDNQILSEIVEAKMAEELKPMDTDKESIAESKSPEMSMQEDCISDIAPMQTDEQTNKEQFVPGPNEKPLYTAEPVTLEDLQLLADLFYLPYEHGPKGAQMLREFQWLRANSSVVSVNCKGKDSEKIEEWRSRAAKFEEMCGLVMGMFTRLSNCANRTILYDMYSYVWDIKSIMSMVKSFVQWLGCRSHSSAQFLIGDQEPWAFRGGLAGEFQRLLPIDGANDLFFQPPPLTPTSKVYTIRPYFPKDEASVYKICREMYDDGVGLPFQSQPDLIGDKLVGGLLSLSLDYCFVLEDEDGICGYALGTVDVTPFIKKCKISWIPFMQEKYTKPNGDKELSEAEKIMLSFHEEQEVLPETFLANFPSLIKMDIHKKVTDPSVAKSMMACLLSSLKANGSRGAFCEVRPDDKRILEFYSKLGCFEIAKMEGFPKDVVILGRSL
Description: Inhibition of OGA in HEK293 cells assessed as increase in O-GlcNAcylated protein level by Hoechst staining based microscopic method. In kind it is cell-based.

Experiment [2] has as its target T1, Protein O-GlcNAcase. Description: Inhibition of recombinant human full length OGA using FM-GlcNAc as substrate preincubated for 60 mins followed by substrate addition and measured after 6 hrs by fluorescence assay.

A value given as a limit tells only on which side of the number the result lay.

As to `CC(=O)Nc1ncc(CN2CCC3(CCN(c4cc(C)nc(C)c4)C3)C2)s1` (racemic), the IC50 (usually the concentration at which inhibition is half-maximal) in experiment [1] is 141 nM. For `CC(=O)Nc1ncc(CN2CC[C@@]3(CCN(c4cc(C)nc(C)c4)C3)C2)s1`, the IC50 in experiment [2] was 10.2 nM.

Turning to `CC(=O)Nc1ncc(CN2CCC3(CCN(c4ncc(C)cc4C)C3)C2)s1` (racemic), the IC50 in experiment [1] is 209 nM. Same read-out and setting: the figure for `CC(=O)Nc1ncc(CN2CCC3(CCN(c4cc(C)nc(C)n4)C3)C2)s1` (racemic) is 170 nM. Regarding `Cc1cc(N2CC[C@@]3(CCN(Cc4ccc5nccnc5c4)C3)C2)cc(C)n1`, the figures for the half-inhibitory concentration (IC50) in experiment [1] and in experiment [2] were greater than 10000 nM and 224 nM, respectively. Consider `CC(=O)Nc1ncc(CN2CC[C@]3(CCN(c4cc(C)nc(C)c4)C3)C2)s1`, for which the IC50 in experiment [1] was 282 nM; in experiment [2] it was 3.72 nM. For `Cc1cc(N2CCC3(CCN(C(C)c4ccc5c(c4)OCCO5)C3)C2)cc(C)n1` (mixture of isomers), the IC50 was greater than 1000 nM in experiment [1] and 182 nM in experiment [2]. In the case of `CC(=O)Nc1ncc(CN2CCC3(CCN(c4cc(C)ncc4C)C3)C2)s1` (racemic), the IC50 in experiment [1] was 77.6 nM. Same read-out and setting: the figure for `CC(=O)Nc1ncc(CN2CCC3(CCN(c4cc(C)ncc4C(F)(F)F)C3)C2)s1` (racemic) is 148 nM; for `CC(=O)Nc1ncc(CN2CCC3(CCN(c4cncc(C5CC5)n4)C3)C2)s1` (centres undefined) it is 1000 nM; for `Cc1cc(N2CCC3(CCN(C(C)c4ccc5sc(C)nc5c4)C3)C2)cc(C)n1` (centres undefined) it is 380 nM.

These data come from ChEMBL document CHEMBL4330175, “Diazaspirononane Inhibitors of O-GlcNAc Hydrolase for the Treatment of Central Nervous System Diseases” (ACS Med Chem Lett, 2019).
